Data reported in patent US20080161247A1, “Synergistic composition for modulating activity of substrate analogs for NAD+, NADP+, NADH or NADPH dependent enzymes and process thereof” (priority 2006, published 2008).
Read-outs that look alike come from different tables or passages of the source.

Tests used:
[1] = molecular target: T1, Plasmodium falciparum enoyl-Acyl carrier protein (ACP) reductase (PfENR) (Plasmodium falciparum, UniProt Q9BH77); test: biochemical; conditions: for Ki: Dixon plot
T1 sequence (Q9BH77 22-432): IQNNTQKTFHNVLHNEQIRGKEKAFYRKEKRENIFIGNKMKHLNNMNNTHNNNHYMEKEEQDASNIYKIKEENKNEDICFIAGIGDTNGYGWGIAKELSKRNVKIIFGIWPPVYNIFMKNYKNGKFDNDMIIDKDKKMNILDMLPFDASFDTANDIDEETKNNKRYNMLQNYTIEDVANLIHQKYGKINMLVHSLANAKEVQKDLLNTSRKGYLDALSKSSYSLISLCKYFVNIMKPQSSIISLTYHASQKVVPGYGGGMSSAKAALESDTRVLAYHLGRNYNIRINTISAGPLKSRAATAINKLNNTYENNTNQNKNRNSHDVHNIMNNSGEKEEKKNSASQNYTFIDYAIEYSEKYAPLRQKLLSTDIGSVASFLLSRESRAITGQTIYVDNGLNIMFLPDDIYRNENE
Experimental: Enzyme assays and inhibition studies were performed on a UV-Vis spectrophotometer (Jasco) at 25° C. in 20 mM Tris/HCl pH 7.4 containing 150 mM NaCl [13, 14]. The standard reaction mixture of 100 μl contained 200 μM crotonoyl-CoA, 100 μM NADH and 30 nM PfENR. All the inhibitors were dissolved in DMSO. 1% V/V DMSO was used in the standard reaction mixture. The reaction proceeds by reduction of crotonoyl-CoA to butyl-CoA with the oxidation of NADH to NAD^+ which is monitored at 340 nm (□∈^M340=6220 M−1 cm−1).
IC50 values of the tea catechins and polyphenolic compounds for PfENR were determined by plotting the percent inhibition of PfENR at various concentrations of inhibitory compounds. […] The percent activity thus calculated was plotted against log of concentration of respective catechins. The data was analyzed by nonlinear regression method using sigmoidal model and IC50 values for each catechin was calculated from the sigmoidal curve.
The sigmoidal curve indicates the best fit for the data.
Ki of individual catechins with respect to NADH and crotonoyl-CoA were determined in separate experiments. […] All the data were analyzed by Dixon plot [8].
All the data of individual experiments were repeated thrice and the mean value was taken for data analysis. The Ki values were determined for each experiment from the X-intercept of the Dixon plot [8].
The data were plotted using the following Dixon equations for competitive and uncompetitive kinetics, respectively.

[2] = system: P. falciparum culture; test: Growth inhibition assay, [3H] hypoxanthine incorporation; type: cell-based, Plasmodium falciparum
Text: Culture media with or without inhibitors was changed daily. Parasites were synchronized at the ring stage with 5% D-sorbitol for all and the cultures were pooled at ring or trophozoite stage with 12-15% parasitemia. Free parasites were released from the red blood cells with 0.15% saponin.
The growth of P. falciparum was quantified by measuring the incorporation of [^3H] hypoxanthine.

[3] = molecular target: T2, PfENR (Plasmodium falciparum, UniProt Q9BH77); type: biochemical; conditions: triclosan with PfENR in presence of the catechin
T2 construct: The overexpression of PfENR was carried out [22]; made in house
Experimental: The reaction was started by the addition of 50 nM of PfENR.
The reaction was monitored at 340 nm and the formation of (NAD^+) was plotted as a function of time using equation 3 to get the dissociation constant by non-linear regression analysis of the data.
Progress curves gave the value of kobs and the k5 or association rate constants were determined by fitting the values of kobs with experimentally determined k6 values in equation 4.
The relationship between Ki, k5, k6 and kobs is described by equation 4.
The overall inhibition constant Ki* is calculated by equation 5.

[4] = molecular target: T3, human aldose reductase (ALR2) (Homo sapiens, UniProt P15121); test: Fluorescence quenching dissociation constants with aldose reductase; type: binding
T3 construct: hexa-His (cleaved yes); made in house; host or cells: E. coli BL-21(DE3)
Experimental: The cloning of human ALR2 gene was done as described before with slight modification. In brief, the open reading frame of the human AR2 gene (Accession GenBank/EMBL Data Bank number J05017) was amplified by the polymerase chain reaction from its cDNA and cloned into the T7 RNA polymerase-based vector pET28a(+) vector (Novagen). The positive clone was sequenced and then transformed into BL-21(DE3) cells for expression. The culture (5 L) was grown at 37° C. till OD600 of 0.8, induced by 1 mM IPTG and grown further at 37° C. for next 3 h. The cells were pelleted, sonicated and the clear supernatant was loaded to Ni-NTA resin. The purified hexa-His tagged human AR2 was subjected to thrombin cleavage and loaded […]. The His-tag cleaved AR2 was further loaded on DEAE Sephadex A-50 column (Pharmacia) and eluted with an NaCl gradient. The purity of the final enzyme preparation was checked on 12% SDS-PAGE.
Ki in all the four cased were calculated strictly using equations mentioned in Example 11.

[5] = system: E. coli O55:B5; test: Survival of mice post bacterial infection; type: in vivo, E. coli in BALB/c mice; conditions: BALB/c mice, 10^7 CFU E. coli O55:B5, D-galactosamine primed; triclosan 40 mg/kg, EGCG 50 mg/kg
Experimental: Agents and Chemother. 12, 3859-3866 (2003) which is detailed below:—
Third group of animals received injections of both Triclosnan and ECGC as above. Controlled group was injected PBS and/or ethanol (500 μl).
For each experiment 6 BALB/c male mice, 6-9 week of age per group were used.
Infection of animals by bacteria: The animals were injected i.p or s.c with 0.4 ml of pyrogen free saline containing 10^7 CFU of bacteria (E. coli O55:B5) and primed with D-galactosamine (300 mg/kg of body weight); (Galanos at al. (1979) Proc. Natl. Acad. Sci. USA, 76, 5939-5943).
The mice was monitored for survival on an hourly basis.

[6] = system: P. berghei; test: Four day suppressive test, survival of P. berghei infected mice; type: in vivo, P. berghei in Balb/c mice; conditions: P. berghei infected Balb/c mice; triclosan 20 mg/kg, EGCG 30 mg/kg, 4 days
Experimental: Randomly bred male Balb/c mice, 6 in numbers, weighing 22-25 grams were inoculated intravenously with 10 million P. berghei parasitized red blood cells. […] Giemsa-stained blood smears for 5 days and thereafter was prepared from the infected animals to assess percentage parasitemia. The survival of the mice was monitored for the following week.

[7] = system: fatty acid synthesis in P. falciparum cultures; test: Incorporation of [14C] acetate into fatty acids in P. falciparum cultures; type: cell-based; conditions: Plasmodium falciparum
Experimental: Fatty acid synthesis in P. falciparum cultures and the effect of a 2′-dihydroxyphenyl ether indicated in formula 1 and 2 with or without flavonoid was evaluated by incorporating [14C] acetate into fatty acids [Surolia and Surolia Nature Medicine, (2001) 7, 167-173].

[8] = molecular target: T2, PfENR; type: binding; conditions: 1 μM [3H]EGCG
Experimental: Binding studies of [^3H] […] Briefly, for gel filtration chromatography, 2 ml Sephadex G-25 column was packed and equilibrated with the reaction buffer. For each run 50 μl of the reaction mixture was loaded and 20 fractions of 100 μl were collected at 0.25 ml/min flow rate. All the fractions were spotted on Whatman 3 filter paper and dried before taking the counts. In the filter binding assay method, the reaction mixtures were directly applied on the activated Polyvinylidene difluoride (PVDF) membrane fixed in a filtration assembly. The filters were washed with 200 μl of reaction buffer and dried. Dried filters were transferred to vials containing 5 ml scintillation fluid and the radioactivity measured using a Hewlett Packard liquid scintillation counter.
To check the binding of [^3H] […] The concentration of [^3H]
[^3H] […] (FIG. 4d) Double reciprocal plot of the same data is shown in the inset.
The binding constants for the above experiments were determined from saturation plots and by Scatchard plot or double reciprocal plot using equation 2a and 2b described under evaluation section.

[9] = molecular target: T2, PfENR; type: binding; conditions: equation 7
Experimental: The excitation and emission monochromator slit widths were adjusted at 3 nm. All the reactions were performed in 3 ml quartz cuvette with constant stirring at 25° C. For the binding studies, 4 μM PfENR was incubated with different tea compounds at their saturating concentrations in 20 mM tris and 150 mM NaCl, pH 7.4, excited at 295 nm and change in the fluorescence intensity at the emission maximum of PfENR (340 nm) was recorded.
For tight binding inhibitors k6 can be considered negligible at the early onset of inhibition. So, k5 can be directly calculated from the following equation [13],
The samples were excited at 290 nm and the emission was recorded at 340 nm.
Before calculating Ki and k5 from fluorescence data, the corrections for inner filter effect were made using equation 8.

[10] = Ki in presence of TCL [nM], Ki of the catechin at 50 nM and 100 nM triclosan
[11] = Ki w.r.t. NADH [μM], competitive, NADH 50, 100, 200 μM, crotonoyl-CoA 200 μM
[12] = Ki w.r.t. crotonoyl-CoA [μM], uncompetitive, NADH 100 μM
[13] = Plasmodium falciparum, Erythrocyte, growth of malaria culture in red blood cells, read-out: IC50 on P. falciparum culture
[14] = binary complex, read-out: Ki with ALR2

Compound: O=C(/C=C/c1ccc(O)c(O)c1)c1ccc(O)cc1O [Buteine, butein]
- IC50 [1]: 12.5 ± 0.67 µM
- Ki [1, 10]: 14 ± 0.57 nM
- Ki [1, 11]: 5500 ± 100 nM
- Ki [1, 12]: 2970 ± 77 nM
- IC50 [2, 13]: 49.7 µM
- Association rate constant k5 of triclosan [3]: 2.1 ± 0.108 [10^−3]s^−1

Compound: O=CC1CCCCC1 [1-Cyclohexylaldehyde]
- Ki [4, 14]: 330 ± 45 µM
- Ki ([4]; read-out: Ki value in the presence of quercetin, 2 μM quercetin preincubated): 0.0141 ± 0.0031 µM

Compound: CCN(CC)CCCC(C)Nc1ccnc2cc(Cl)ccc12 (stereo not shown) [chloroquine, reference compound]
- IC50 ([2]; Plasmodium falciparum, read-out: IC50 for chloroquine, strain MP-14): 0.3 µM
- IC50 ([2]; Plasmodium falciparum, read-out: IC50 of chloroquine, strain FCK2): 0.018 µM

Compound: (−) epigallocatechin gallate [EGCG]
- IC50 ([2]; growth of malaria culture in red blood cells, read-out: IC50 on P. falciparum culture): 191 µM

Compound: Oc1cc(O)c2c(c1)O[C@H](c1cc(O)c(O)c(O)c1)[C@H](O)C2 [EGC, (−) epigallocatechin]
- IC50 [1]: 7 ± 0.085 µM
- Ki [1, 10]: 17.6 ± 0.67 nM
- Ki [1, 11]: 3750 ± 54 nM
- Ki [1, 12]: 2000 ± 78 nM
- IC50 [2, 13]: 211 µM
- Association rate constant k5 of triclosan [3]: 5.4 ± 0.097 [10^−3]s^−1

Compound: O=C(O[C@@H]1Cc2c(O)cc(O)cc2O[C@@H]1c1ccc(O)c(O)c1)c1cc(O)c(O)c(O)c1 [ECG, (−) epicatechin gallate]
- IC50 [1]: 0.5 ± 0.016 µM
- Ki [1, 10]: 16 ± 0.45 nM
- Ki [1, 11]: 291 ± 7.6 nM
- Ki [1, 12]: 102 ± 4.6 nM
- IC50 ([2]; Plasmodium falciparum, Erythrocyte, read-out: IC50 on P. falciparum culture): 4.7 µM
- Association rate constant k5 of triclosan [3]: 6.3 ± 0.135 [10^−3]s^−1

Compound: Oc1cc(Cl)ccc1Oc1ccc(Cl)cc1Cl [Triclosan, 5-chloro-2-(2,4-dichlorophenoxy)phenol]
- Survival Time [5]: 45 ± 6 h
- Mice surviving from a group of 6 on Day 6 [6]: 3 ± 1
- Mice surviving from a group of 6 on Day 12 [6]: 1 ± 1
- inhibition at 9 µM [7]: 90%
- Association constant of triclosan, double reciprocal plot [8]: 14 ± 0.77 µM⁻¹
- Association constant of triclosan, saturation kinetics [8]: 22.18 ± 1.7 µM⁻¹
- k5 of triclosan in presence of EGCG from slow decrease of fluorescence [9]: 0.0072±0.84×10^−5 s^−1

Compound: O=CC(O)CO (stereo not shown) [Glyceraldehyde, glyceraldehyde]
- fold decrease of Kd of glyceraldehyde by quercetin ([4]; 2 μM quercetin): more than 10 fold
- Kd ([4]; Kd of glyceraldehyde in the presence of quercetin, 2 μM quercetin): 40 µM
- Ki [4, 14]: 510 ± 54 µM
- Kd ([4]; without quercetin, read-out: Kd of glyceraldehyde with aldose reductase): 510 µM

Compound: O=c1c(O)c(-c2ccc(O)c(O)c2)oc2cc(O)cc(O)c12 [Quercetin, quercetin]
- IC50 [1]: 2.5 ± 0.078 µM
- Ki [1, 10]: 22 ± 0.85 nM
- Ki [1, 11]: 1090 ± 89 nM
- Ki [1, 12]: 473 ± 11 nM
- IC50 [2, 13]: 20.7 µM
- Association rate constant k5 of triclosan [3]: 3.1 ± 0.0786 [10^−3]s^−1
